In patent US11945798B2, “Substituted aminopyridine compounds as EGFR inhibitors” (YUHAN CORPORATION, priority 2021, dated 2024):
Where two headings read alike, the source gives them in different places.

Experiments:
EGFR L858R/T790M/C797S = EGFR L858R/T790M/C797S (Homo sapiens, UniProt P00533, C797S/L858R/T790M); assay: Biochemical EGFR kinase assay (Lance Ultra TR-FRET), L858R/T790M/C797S
Method in brief: (§1)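 Step 1: compound in kinase buffer, 0.003–10 μM. Step 2: kinase reaction 1 h at room temperature. Step 4: TR-FRET read at 615/665 nm; IC50 calculated.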

EGFR wildtype (WT) = EGFR wildtype (WT) (Homo sapiens, UniProt P00533); assay: Biochemical EGFR kinase assay (Lance Ultra TR-FRET), wildtype
EGFR wildtype (WT), sequence (P00533 25-1210): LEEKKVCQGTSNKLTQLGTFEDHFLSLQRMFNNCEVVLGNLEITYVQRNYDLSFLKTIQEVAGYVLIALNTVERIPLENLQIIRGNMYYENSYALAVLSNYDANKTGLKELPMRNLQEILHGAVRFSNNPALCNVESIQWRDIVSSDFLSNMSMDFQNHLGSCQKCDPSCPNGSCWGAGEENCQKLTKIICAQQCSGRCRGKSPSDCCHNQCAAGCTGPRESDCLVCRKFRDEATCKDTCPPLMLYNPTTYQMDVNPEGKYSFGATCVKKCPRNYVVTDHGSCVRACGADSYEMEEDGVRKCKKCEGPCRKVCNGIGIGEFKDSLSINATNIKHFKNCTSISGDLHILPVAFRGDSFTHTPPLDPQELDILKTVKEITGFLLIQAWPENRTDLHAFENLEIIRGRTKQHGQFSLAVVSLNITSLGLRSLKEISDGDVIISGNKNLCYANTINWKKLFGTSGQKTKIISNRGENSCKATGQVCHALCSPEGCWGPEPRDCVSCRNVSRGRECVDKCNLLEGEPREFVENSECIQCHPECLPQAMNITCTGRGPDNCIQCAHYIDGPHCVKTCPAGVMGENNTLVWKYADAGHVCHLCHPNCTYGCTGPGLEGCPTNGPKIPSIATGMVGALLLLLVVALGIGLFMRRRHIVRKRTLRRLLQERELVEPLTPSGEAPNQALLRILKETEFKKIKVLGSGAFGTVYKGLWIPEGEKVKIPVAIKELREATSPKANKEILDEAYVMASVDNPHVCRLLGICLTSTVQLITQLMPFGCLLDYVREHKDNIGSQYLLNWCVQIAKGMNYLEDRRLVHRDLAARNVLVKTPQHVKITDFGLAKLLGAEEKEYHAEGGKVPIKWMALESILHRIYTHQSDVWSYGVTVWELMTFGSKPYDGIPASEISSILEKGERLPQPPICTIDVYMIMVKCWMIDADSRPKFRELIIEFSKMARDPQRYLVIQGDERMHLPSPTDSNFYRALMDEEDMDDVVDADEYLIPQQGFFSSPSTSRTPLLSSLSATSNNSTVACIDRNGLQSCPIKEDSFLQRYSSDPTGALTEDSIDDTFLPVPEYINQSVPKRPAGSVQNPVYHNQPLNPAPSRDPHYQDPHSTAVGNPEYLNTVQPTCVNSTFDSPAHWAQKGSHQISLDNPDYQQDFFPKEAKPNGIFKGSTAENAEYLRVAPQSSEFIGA
Method in brief: as §1

EGFR del19/T790M/C797S = EGFR del19/T790M/C797S (Homo sapiens, UniProt P00533, C797S/DEL746-750/T790M); assay: Biochemical EGFR kinase assay (Lance Ultra TR-FRET), del19/T790M/C797S
EGFR del19/T790M/C797S, sequence (P00533 with tags, fused parts or gaps DEL746-750/T790M/C797S): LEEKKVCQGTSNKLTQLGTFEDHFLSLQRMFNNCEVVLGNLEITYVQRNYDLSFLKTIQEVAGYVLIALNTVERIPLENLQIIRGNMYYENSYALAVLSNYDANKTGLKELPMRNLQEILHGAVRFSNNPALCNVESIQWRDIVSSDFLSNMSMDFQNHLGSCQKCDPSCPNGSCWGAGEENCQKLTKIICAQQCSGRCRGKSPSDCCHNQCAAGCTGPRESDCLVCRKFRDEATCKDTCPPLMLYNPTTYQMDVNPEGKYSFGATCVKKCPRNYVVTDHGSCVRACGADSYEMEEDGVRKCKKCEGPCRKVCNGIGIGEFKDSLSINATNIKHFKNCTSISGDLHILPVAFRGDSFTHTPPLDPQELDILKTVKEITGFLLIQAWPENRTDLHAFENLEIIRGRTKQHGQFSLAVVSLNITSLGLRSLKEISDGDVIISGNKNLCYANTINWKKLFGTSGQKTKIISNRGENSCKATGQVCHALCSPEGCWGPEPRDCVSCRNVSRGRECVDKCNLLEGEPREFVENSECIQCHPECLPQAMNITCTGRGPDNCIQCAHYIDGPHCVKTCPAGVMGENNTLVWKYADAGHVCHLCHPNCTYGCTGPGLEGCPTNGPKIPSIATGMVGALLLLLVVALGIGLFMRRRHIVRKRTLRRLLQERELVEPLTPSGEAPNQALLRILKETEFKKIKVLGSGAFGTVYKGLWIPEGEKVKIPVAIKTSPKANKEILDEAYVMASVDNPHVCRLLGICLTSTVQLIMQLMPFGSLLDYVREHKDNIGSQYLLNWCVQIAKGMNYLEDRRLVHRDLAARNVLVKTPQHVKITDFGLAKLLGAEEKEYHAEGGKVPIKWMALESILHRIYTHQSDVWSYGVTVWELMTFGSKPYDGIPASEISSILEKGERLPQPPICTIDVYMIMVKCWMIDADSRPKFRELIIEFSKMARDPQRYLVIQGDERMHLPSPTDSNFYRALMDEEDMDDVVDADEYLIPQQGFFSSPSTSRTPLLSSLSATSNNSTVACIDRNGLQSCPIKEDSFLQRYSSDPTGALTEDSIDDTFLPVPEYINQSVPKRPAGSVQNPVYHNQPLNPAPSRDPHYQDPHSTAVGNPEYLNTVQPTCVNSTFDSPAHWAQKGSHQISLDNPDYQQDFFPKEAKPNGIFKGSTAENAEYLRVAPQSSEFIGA
Method in brief: as §1

EGFR L858R/C797S = EGFR L858R/C797S (Homo sapiens, UniProt P00533, C797S/L858R); assay: Biochemical EGFR kinase assay (Lance Ultra TR-FRET), L858R/C797S
EGFR L858R/C797S, sequence (P00533 25-1210 C797S/L858R): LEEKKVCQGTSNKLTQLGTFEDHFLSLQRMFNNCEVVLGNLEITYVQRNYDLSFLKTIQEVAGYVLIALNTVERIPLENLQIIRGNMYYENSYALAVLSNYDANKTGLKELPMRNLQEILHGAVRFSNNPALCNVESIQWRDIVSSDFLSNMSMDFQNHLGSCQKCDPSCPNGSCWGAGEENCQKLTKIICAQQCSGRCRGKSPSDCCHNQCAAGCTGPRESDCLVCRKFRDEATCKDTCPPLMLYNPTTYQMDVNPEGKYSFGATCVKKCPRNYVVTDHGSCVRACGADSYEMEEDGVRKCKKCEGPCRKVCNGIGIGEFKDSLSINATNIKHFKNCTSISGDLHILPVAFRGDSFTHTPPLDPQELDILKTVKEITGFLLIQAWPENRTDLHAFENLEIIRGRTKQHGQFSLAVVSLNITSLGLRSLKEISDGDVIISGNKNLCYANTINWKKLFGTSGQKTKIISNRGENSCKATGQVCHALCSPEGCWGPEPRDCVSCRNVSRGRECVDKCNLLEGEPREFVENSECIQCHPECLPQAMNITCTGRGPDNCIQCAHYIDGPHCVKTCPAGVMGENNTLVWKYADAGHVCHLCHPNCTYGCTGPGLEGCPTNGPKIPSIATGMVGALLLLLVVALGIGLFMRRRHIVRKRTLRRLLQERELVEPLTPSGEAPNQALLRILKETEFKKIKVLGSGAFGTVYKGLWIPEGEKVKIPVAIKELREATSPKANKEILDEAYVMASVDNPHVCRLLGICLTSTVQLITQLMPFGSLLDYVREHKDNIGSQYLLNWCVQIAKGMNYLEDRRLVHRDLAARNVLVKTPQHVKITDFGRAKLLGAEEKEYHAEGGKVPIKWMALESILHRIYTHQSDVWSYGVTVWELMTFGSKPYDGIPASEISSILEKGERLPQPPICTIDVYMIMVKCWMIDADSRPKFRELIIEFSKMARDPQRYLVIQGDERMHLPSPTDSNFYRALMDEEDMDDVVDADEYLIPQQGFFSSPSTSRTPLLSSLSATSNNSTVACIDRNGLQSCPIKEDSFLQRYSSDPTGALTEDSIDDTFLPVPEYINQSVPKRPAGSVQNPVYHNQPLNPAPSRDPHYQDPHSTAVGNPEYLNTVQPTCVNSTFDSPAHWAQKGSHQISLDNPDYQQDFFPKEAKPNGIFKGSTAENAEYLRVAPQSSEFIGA
Method: Biochemical EGFR kinase assays were conducted using Lance Ultra time-resolved fluorescence resonance energy transfer (TR-FRET) technology from Perkin-Elmer. Compounds of the invention were initially diluted to 20 mM in 100% DMSO for storage and made into kinase buffer solution to create a compound concentration ranging from 0.003 μM and 10 μM.
Each kinase reactions were incubated at room temperature for 1 hour and then stopped by the addition of 4 μL of stop solution (10 mM EDTA). The specific Europium-labeled-anti-phosphopeptide antibody (PerkinElmer, AD0069) diluted in LANCE detection buffer was then added to a final concentration of 2 nM. After 60 minutes incubation at room temperature the LANCE signal was measured on an EnVision Multilabel Reader (Perkin-Elmer). Excitation wavelength was set at 320 nm and emission monitored at 615 nm (donor) and 665 nm (acceptor). The IC50 values were determined using GraphPad prism software (GraphPad Software, Inc., San Diego, CA, USA).

EGFR del19/C797S = EGFR del19/C797S (Homo sapiens, UniProt P00533, C797S/DEL746-750); assay: Biochemical EGFR kinase assay (Lance Ultra TR-FRET), del19/C797S
EGFR del19/C797S, sequence (P00533 with tags, fused parts or gaps DEL746-750/C797S): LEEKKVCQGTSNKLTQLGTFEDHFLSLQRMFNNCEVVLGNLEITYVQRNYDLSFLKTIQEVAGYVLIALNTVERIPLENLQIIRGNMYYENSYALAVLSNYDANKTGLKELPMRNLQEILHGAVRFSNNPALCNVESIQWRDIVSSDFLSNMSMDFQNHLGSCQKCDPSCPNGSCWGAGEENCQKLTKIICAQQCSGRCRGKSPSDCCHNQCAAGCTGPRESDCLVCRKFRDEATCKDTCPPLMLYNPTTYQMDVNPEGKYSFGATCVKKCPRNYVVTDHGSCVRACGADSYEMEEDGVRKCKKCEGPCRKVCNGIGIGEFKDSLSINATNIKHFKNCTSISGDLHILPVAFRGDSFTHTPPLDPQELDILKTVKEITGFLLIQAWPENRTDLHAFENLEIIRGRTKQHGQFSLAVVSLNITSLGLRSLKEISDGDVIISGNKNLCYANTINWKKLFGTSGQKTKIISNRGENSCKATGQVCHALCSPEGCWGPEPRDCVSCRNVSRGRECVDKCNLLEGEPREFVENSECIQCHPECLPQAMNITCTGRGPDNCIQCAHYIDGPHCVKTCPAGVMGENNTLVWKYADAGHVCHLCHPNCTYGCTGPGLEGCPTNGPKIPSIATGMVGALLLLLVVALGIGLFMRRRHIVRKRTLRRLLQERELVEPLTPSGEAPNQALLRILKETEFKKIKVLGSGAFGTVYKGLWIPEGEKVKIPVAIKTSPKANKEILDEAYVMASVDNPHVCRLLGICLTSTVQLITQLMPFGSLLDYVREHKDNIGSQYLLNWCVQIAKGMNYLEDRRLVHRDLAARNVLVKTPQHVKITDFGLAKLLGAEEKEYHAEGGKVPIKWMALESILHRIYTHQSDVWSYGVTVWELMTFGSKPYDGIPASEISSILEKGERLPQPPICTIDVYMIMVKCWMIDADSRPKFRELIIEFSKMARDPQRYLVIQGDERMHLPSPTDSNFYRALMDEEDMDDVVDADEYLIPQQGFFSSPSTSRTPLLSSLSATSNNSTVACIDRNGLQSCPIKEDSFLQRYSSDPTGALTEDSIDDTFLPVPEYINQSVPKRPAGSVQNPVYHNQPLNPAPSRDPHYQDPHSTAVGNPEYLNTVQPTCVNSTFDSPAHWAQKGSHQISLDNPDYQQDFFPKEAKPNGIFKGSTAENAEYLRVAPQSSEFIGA
Method in brief: as §1

[1] = IC50 L858R/T790M/C797S (nM) 100 μM ATP, 100 μM ATP
[2] = Km ATP, read-out: IC50 L858R/T790M/C797S (nM) Km ATP
[3] = IC50 WT (nM) 100 μM ATP, 100 μM ATP
[4] = Km ATP, read-out: IC50 WT (nM) Km ATP
[5] = IC50 del19/T790M/C797S (nM) 100 μM ATP, 100 μM ATP
[6] = Km ATP, read-out: IC50 del19/T790M/C797S (nM) Km ATP
[7] = IC50 L858R/C797S (nM) 100 μM ATP, 100 μM ATP
[8] = Km ATP, read-out: IC50 L858R/C797S (nM) Km ATP
[9] = IC50 del19/C797S (nM) 100 μM ATP, 100 μM ATP
[10] = Km ATP, read-out: IC50 del19/C797S (nM) Km ATP

| IC50 (EGFR L858R/T790M/C797S; [1]) | IC50 (EGFR L858R/T790M/C797S; [2]) | IC50 (EGFR wildtype (WT); [3]) | IC50 (EGFR wildtype (WT); [4]) | IC50 (EGFR del19/T790M/C797S; [5]) | IC50 (EGFR del19/T790M/C797S; [6]) | IC50 (EGFR L858R/C797S; [7]) | IC50 (EGFR L858R/C797S; [8]) | IC50 (EGFR del19/C797S; [9]) | IC50 (EGFR del19/C797S; [10]) | Structure (SMILES) |
| --- | --- | --- | --- | --- | --- | --- | --- | --- | --- | --- |
| 5.2 nM | 1.9 nM | > 10000 nM | 470 nM | 3.8 nM | 2.9 nM | 451 nM | 19 nM | 38.8 nM | 38.4 nM | O=C(c1cnc(Nc2ccnc(-c3cnn(S(=O)(=O)C4CC4)c3)n2)cc1NC1CCCN(CCF)C1)C1CC1 (stereo not shown) [Example 39, Cyclopropyl(6-((2-(1-(cyclopropylsulfonyl)-1H-pyrazol-4-yl)pyrimidin-4-yl)amino)-4-((1-(2-fluoroethyl)piperidin-3-yl)amino)pyridin-3-yl)methanone] |
|  | 1.1 nM |  | 63.5 nM |  | 0.4 nM |  | 16.4 nM |  | 72.3 nM | CN(C)C1CCN(CCNc2cc(Nc3ccnc(-c4cnn(S(=O)(=O)C5CC5)c4)n3)ncc2C(=O)C2CC2)CC1 [Example 21, Cyclopropyl(6-((2-(1-(cyclopropylsulfonyl)-1H-pyrazol-4-yl)pyrimidin-4-yl)amino)-4-((2-(4-(dimethylamino)piperidin-1-yl)ethyl)amino)pyridin-3-yl)methanone] |
|  | 0.2 nM |  | 28.2 nM |  | 0.2 nM |  | 61.7 nM |  | 4.5 nM | O=C(c1cnc(Nc2ccnc(-c3cnn(S(=O)(=O)C4CC4)c3)n2)cc1NC1CCC(CO)C1)C1CC1 (stereo not shown) [Example 13, Cyclopropyl(6-((2-(1-(cyclopropylsulfonyl)-1H-pyrazol-4-yl)pyrimidin-4-yl)amino)-4-((3-(hydroxymethyl)cyclopentyl)amino)pyridin-3-yl)methanone] |
| 2 nM | 0.4 nM | > 10000 nM | 113 nM | 1.2 nM | 1 nM | 168 nM | 9.7 nM | 79.9 nM | 36.9 nM | CN(C)CCN1CCC(Nc2cc(Nc3ccnc(-c4cnn(S(=O)(=O)C5CC5)c4)n3)ncc2C(=O)C2CC2)CC1 [Example 37, Cyclopropyl(6-((2-(1-(cyclopropylsulfonyl)-1H-pyrazol-4-yl)pyrimidin-4-yl)amino)-4-((1-(2-(dimethylamino)ethyl)piperidin-4-yl)amino)pyridin-3-yl)methanone] |
| 0.9 nM |  | > 10000 nM |  | 0.5 nM |  | 15.5 nM |  | 5.4 nM |  | O=C(c1cnc(Nc2ccnc(-c3cnn(S(=O)(=O)C4CC4)c3)n2)cc1NC1CC[C@@H](O)[C@@H](O)C1)C1CC1 (stereo partly drawn) [Example 36, Cyclopropyl(6-((2-(1-(cyclopropylsulfonyl)-1H-pyrazol-4-yl)pyrimidin-4-yl)amino)-4-(((3S,4R)-3,4-dihydroxycyclohexyl)amino)pyridin-3-yl)methanone] |
| 1 nM |  | > 10000 nM |  | 0.9 nM |  | 29.4 nM |  | 11.8 nM |  | O=C(c1cnc(Nc2ccnc(-c3cnn(S(=O)(=O)C4CC4)c3)n2)cc1N[C@H]1CC[C@@H](O)C1)C1CC1 [Example 25, Cyclopropyl(6-((2-(1-(cyclopropylsulfonyl)-1H-pyrazol-4-yl)pyrimidin-4-yl)amino)-4-(((1S,3R)-3-hydroxycyclopentyl)amino)pyridin-3-yl)methanone] |
| 1.9 nM |  | > 10000 nM |  | 1 nM |  | 85 nM |  | 35.7 nM |  | O=C(c1cnc(Nc2ccnc(-c3cnn(S(=O)(=O)C4CC4)c3)n2)cc1NC1CCC(NCCN2CC(F)C2)CC1)C1CC1 (stereo not shown) [Example 55, Cyclopropyl(6-((2-(1-(cyclopropylsulfonyl)-1H-pyrazol-4-yl)pyrimidin-4-yl)amino)-4-((4-((2-(3-fluoroazetidin-1-yl)ethyl)amino)cyclohexyl)amino)pyridin-3-yl)methanone] |

Continued, compound first:

| Structure (SMILES) | IC50 (EGFR L858R/T790M/C797S; [1]) | IC50 (EGFR L858R/T790M/C797S; [2]) | IC50 (EGFR wildtype (WT); [3]) | IC50 (EGFR wildtype (WT); [4]) | IC50 (EGFR del19/T790M/C797S; [5]) | IC50 (EGFR del19/T790M/C797S; [6]) | IC50 (EGFR L858R/C797S; [7]) | IC50 (EGFR L858R/C797S; [8]) | IC50 (EGFR del19/C797S; [9]) | IC50 (EGFR del19/C797S; [10]) |
| --- | --- | --- | --- | --- | --- | --- | --- | --- | --- | --- |
| CC(=O)NC[C@H]1CC[C@H](CNc2cc(Nc3ccnc(-c4cnn(S(=O)(=O)C5CC5)c4)n3)ncc2C(=O)C2CC2)CC1 [Example 68, N-(((1r,4r)-4-(((5-(Cyclopropanecarbonyl)-2-((2-(1-(cyclopropylsulfonyl)-1H-pyrazol-4-yl)pyrimidin-4-yl)amino)pyridin-4-yl)amino)methyl)cyclohexyl)methyl)acetamide] |  | 0.5 nM |  | 14.9 nM |  | 1 nM |  | 11.8 nM |  | 1 nM |
| O=C(c1cnc(Nc2ccnc(-c3cnn(S(=O)(=O)C4CC4)c3)n2)cc1NC1CCCOC1)C1CC1 (stereo not shown) [Example 34, Cyclopropyl(6-((2-(1-(cyclopropylsulfonyl)-1H-pyrazol-4-yl)pyrimidin-4-yl)amino)-4-((tetrahydro-2H-pyran-3-yl)amino)pyridin-3-yl)methanone] | 5.3 nM |  | > 10000 nM |  | 2 nM |  | 398 nM |  | 124 nM |  |
| O=C(c1cnc(Nc2ccnc(-c3cnn(S(=O)(=O)C4CC4)c3)n2)cc1N[C@H]1CC[C@](O)(CO)CC1)C1CC1 [Example 86, Cyclopropyl(6-((2-(1-(cyclopropylsulfonyl)-1H-pyrazol-4-yl)pyrimidin-4-yl)amino)-4-(((1s,4s)-4-hydroxy-(4-hydroxymethyl)cyclohexyl)amino)pyridin-3-yl)methanone] | 0.3 nM | 0.1 nM | > 10000 nM | 47.6 nM | 0.2 nM | 0.2 nM | 52.9 nM | 4.3 nM | 2.9 nM | 1.9 nM |
| CC(=O)c1cnc(Nc2ccnc(-c3cnn(S(=O)(=O)C4CC4)c3)n2)cc1NC1CCC(CO)C1 (stereo not shown) [Example 47, 1-(6-((2-(1-Cyclopropylsulfonylpyrazol-4-yl)pyrimidin-4-yl)amino)-4-((3-(hydroxymethyl)cyclopentyl)amino)-3-pyridyl)ethanone] |  | 0.6 nM |  | 145 nM |  | 0.1 nM |  | 51.3 nM |  | 10.5 nM |
| CC(C)(CO)CNc1cc(Nc2ccnc(-c3cnn(S(=O)(=O)C4CC4)c3)n2)ncc1C(=O)C1CC1 [Example 28, Cyclopropyl(6-((2-(1-(cyclopropylsulfonyl)-1H-pyrazol-4-yl)pyrimidin-4-yl)amino)-4-((3-hydroxy-2,2-dimethylpropyl)amino)pyridin-3-yl)methanone] | 32.1 nM |  | > 10000 nM |  | 2.6 nM |  | 234 nM |  | 176 nM |  |
| CC1(CO)CCN(c2cc(Nc3ccnc(-c4cnn(S(=O)(=O)C5CC5)c4)n3)ncc2F)CC1 [Example 85, (1-(2-((2-(1-(Cyclopropylsulfonyl)-1H-pyrazol-4-yl)pyrimidin-4-yl)amino)-5-fluoropyridin-4-yl)-4-methylpiperidin-4-yl)methanol] | 21.5 nM |  | > 10000 nM |  | 9.4 nM |  | 903 nM |  | 146 nM |  |
| O=C(c1cnc(Nc2ccnc(-c3cnn(S(=O)(=O)C4CC4)c3)n2)cc1NC[C@H]1CC[C@H](Cn2ccnc2)CC1)C1CC1 [Example 43, (4-((((1r,4r)-4-((1H-Imidazol-1-yl)methyl)cyclohexyl)methyl)amino)-6-((2-(1-(cyclopropylsulfonyl)-1H-pyrazol-4-yl)pyrimidin-4-yl)amino)pyridin-3-yl)(cyclopropyl)methanone] |  | 0.5 nM |  | 64.1 nM |  | 1.3 nM |  | 24 nM |  | 10.5 nM |
| CNC[C@H]1CC[C@H](CNc2cc(Nc3ccnc(-c4cnn(S(=O)(=O)C5CC5)c4)n3)ncc2C(=O)C2CC2)CC1 [Example 89, Cyclopropyl(6-((2-(1-(cyclopropylsulfonyl)-1H-pyrazol-4-yl)pyrimidin-4-yl)amino)-4-((((1r,4r)-4-((methylamino)methyl)cyclohexyl)methyl)amino)pyridin-3-yl)methanone] | 0.1 nM | 0.1 nM | 532 nM | 4.9 nM | 0.2 nM | 0.2 nM | 7.9 nM | 0.7 nM | 0.8 nM | 0.5 nM |
| CN(C)C[C@H]1CC[C@H](COc2cc(Nc3ccnc(-c4cnn(S(=O)(=O)C5CC5)c4)n3)ncc2C(=O)C2CC2)CC1 [Example 66, Cyclopropyl(6-((2-(1-(cyclopropylsulfonyl)-1H-pyrazol-4-yl)pyrimidin-4-yl)amino)-4-(((1r,4r)-4-((dimethylamino)methyl)cyclohexyl)methoxy)pyridin-3-yl)methanone] |  | 0.4 nM |  | 148 nM |  | 0.1 nM |  | 101 nM |  | 11.1 nM |
